Measurements as given in patent publication US12448369B2 (Edgewise Therapeutics, Inc., priority 2023, dated 2025).

Legend:
[1] = test system: Rabbit Psoas myofibrils (skeletal myosin ATPase); assay: Myofibril ATPase assay, rabbit psoas (skeletal) myofibrils; assay type: biochemical; conditions: rabbit psoas myofibrils
How it was run: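 Readout: A340 decline from NADH oxidation, PK/LDH-coupled to ADP release; kinetic reads over 75 min. Buffer: pCa (PIPES, CaCl2, EGTA), pH 7.0. Linear-regression slopes vs vehicle, 4PL fit; reported as concentration giving 75% (Y75) or 125% (Y125) of vehicle activity.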

[2] = test system: Porcine atria myofibrils (atrial myosin ATPase); assay: Myofibril ATPase assay, porcine atria myofibrils; assay type: biochemical; conditions: porcine atria myofibrils
How it was run: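 Coupled PK-LDH readout, NADH loss at 340 nm, kinetic 75 min. Porcine atria myofibrils, pCa buffer (PIPES/CaCl2/EGTA, pH 7.0). Slopes (mAU/min) normalized to vehicle = 100%, 4-parameter fit; Y75 or Y125 reported.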

[3] = target: T1, Porcine ventricle myofibrils (ventricular myosin ATPase) (Sus scrofa, UniProt P79293); assay: Myofibril ATPase assay, porcine ventricle myofibrils; assay type: biochemical, porcine (Yucatan minipigs); conditions: porcine ventricle myofibrils
T1 construct: Myofibrils from porcine cardiac muscle was isolated from the left ventricle of Yucatan minipigs; tissue Exemplar Genetics; host or cells: left ventricle of Yucatan minipigs, myofibrils prepared in house
How it was run: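 In a coupled enzyme format, ADP from myofibril ATPase drives NADH oxidation, monitored kinetically at 340 nm for 75 min using minipig ventricle myofibrils. Effective concentrations giving 25% loss or gain of activity relative to vehicle were calculated from 4-parameter fits.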

[4] = Y75 value (75% activity relative to no compound)
[5] = ‡ Y125 value, not a Y75 value (125% activity relative to no compound)

T1 sequence (P79293 whole entry): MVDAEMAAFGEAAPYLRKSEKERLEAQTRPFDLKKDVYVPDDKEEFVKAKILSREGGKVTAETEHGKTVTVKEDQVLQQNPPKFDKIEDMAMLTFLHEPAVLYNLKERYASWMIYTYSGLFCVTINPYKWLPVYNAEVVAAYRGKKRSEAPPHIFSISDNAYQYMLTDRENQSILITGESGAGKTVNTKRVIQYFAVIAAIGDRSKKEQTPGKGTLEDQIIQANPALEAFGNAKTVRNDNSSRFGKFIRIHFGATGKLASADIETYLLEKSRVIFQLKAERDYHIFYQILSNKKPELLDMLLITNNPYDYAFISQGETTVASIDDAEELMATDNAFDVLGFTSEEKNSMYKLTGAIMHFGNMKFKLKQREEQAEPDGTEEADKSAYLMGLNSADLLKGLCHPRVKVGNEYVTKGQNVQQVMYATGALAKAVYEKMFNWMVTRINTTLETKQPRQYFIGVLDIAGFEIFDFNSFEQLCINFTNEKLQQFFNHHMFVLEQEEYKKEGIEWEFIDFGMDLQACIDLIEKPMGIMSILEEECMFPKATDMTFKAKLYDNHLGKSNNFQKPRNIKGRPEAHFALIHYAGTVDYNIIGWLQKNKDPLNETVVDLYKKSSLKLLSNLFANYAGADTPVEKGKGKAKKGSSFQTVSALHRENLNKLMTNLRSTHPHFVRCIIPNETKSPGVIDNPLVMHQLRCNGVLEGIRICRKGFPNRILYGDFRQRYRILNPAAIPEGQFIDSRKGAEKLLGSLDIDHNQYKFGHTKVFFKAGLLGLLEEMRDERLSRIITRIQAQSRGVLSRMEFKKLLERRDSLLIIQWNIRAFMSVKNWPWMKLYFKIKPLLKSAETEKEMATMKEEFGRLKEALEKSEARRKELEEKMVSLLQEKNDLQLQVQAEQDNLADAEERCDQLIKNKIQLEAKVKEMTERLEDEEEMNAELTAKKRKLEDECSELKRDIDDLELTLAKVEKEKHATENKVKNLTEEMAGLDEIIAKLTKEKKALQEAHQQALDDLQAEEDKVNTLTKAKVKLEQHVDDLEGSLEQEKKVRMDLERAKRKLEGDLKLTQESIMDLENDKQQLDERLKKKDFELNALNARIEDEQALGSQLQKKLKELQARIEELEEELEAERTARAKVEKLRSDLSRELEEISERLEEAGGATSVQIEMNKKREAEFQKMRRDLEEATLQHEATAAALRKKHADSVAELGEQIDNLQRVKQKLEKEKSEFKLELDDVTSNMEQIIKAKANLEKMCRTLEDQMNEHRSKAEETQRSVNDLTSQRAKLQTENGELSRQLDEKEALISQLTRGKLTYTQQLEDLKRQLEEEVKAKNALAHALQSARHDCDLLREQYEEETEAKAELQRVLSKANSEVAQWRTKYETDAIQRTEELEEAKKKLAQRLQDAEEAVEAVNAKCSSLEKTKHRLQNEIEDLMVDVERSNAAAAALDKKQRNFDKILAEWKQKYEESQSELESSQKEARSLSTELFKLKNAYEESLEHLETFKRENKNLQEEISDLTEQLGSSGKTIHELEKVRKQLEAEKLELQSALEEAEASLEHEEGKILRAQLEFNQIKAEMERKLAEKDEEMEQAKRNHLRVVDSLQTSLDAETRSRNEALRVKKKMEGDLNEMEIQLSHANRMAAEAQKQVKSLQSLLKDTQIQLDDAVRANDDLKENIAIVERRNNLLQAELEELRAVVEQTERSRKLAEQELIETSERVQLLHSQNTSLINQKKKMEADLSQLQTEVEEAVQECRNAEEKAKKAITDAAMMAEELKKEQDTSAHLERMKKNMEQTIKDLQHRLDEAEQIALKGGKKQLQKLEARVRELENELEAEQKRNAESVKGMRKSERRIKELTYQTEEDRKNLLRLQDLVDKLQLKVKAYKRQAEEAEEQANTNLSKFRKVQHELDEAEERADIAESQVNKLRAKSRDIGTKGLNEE

Row | Skeletal EC25 ([1]; Y75 value (no ‡ mark)) [µM] | Atrial EC25 ([2]; Y75 value (no ‡ mark)) [µM] | Ventricular EC25 ([3]; Y75 value (no ‡ mark)) [µM] | SMILES | further results
1 | – | – | – | C[C@H](NC(=O)[C@H](C)c1c(C(F)(F)F)c2cnccc2[nH]c1=O)c1ccc(F)cc1F (single isomer, unassigned) [compound 427] | Skeletal EC25 ([1]; Y75 value): 2.02 µM; Atrial EC25 [2, 4]: 2.53 µM; Ventricular EC25 ([3]; Y75 value): 22.60 µM
2 | – | – | – | Cc1nccc2[nH]c(=O)c([C@H](C)C(=O)N[C@@H](C)c3ccc(F)cc3F)cc12 (single isomer, unassigned) [compound 442] | Skeletal EC25 ([1]; Y75 value): 12.41 µM; Atrial EC25 [2, 4]: 100.00 µM; Ventricular EC25 ([3]; Y75 value): 100.00 µM
3 | – | – | – | C[C@H](NC(=O)[C@H](C)c1cc2cnccc2[nH]c1=O)c1ccc(F)cc1F (single isomer, unassigned) [compound 443] | Skeletal EC25 ([1]; Y75 value): 1.34 µM; Atrial EC25 [2, 4]: 100.00 µM; Ventricular EC25 ([3]; Y75 value): 100.00 µM
4 | 0.27 | 0.33 | 0.49 | CCc1c(CC(=O)N[C@H](C)c2ncc(C#N)cn2)c(=O)[nH]c2ccc(F)c(C)c12 (single isomer, unassigned) [compound 2001] | –
5 | 0.11 | 0.29 | 0.21 | CCc1c(CC(=O)N[C@@H](C)c2ncc(C#N)cn2)c(=O)[nH]c2ccc(F)c(C)c12 (single isomer, unassigned) [compound 2002] | –
6 | 2.25 | 100.00 | 100.00 | C[C@@H](NC(=O)Cc1cc2c(C(F)(F)F)c(F)ccc2[nH]c1=O)c1ncc(C#N)cn1 (single isomer, unassigned) [compound 2009] | –
7 | 0.66 | 1.25 | 3.45 | C[C@H](NC(=O)Cc1cc2c(C(F)(F)F)c(F)ccc2[nH]c1=O)c1ncc(C#N)cn1 (single isomer, unassigned) [compound 2010] | –
8 | 13.05 | 16.08 | 100.00 | Cc1ccc2[nH]c(=O)c(CC(=O)N[C@H](C)c3ncc(C#N)cn3)cc2c1F (single isomer, unassigned) [compound 2013] | –
9 | 100.00 | 100.00 | – | Cc1ccc2[nH]c(=O)c(CC(=O)N[C@@H](C)c3ncc(C#N)cn3)cc2c1F (single isomer, unassigned) [compound 2014] | Ventricular EC25 [3, 5]: 100.00‡ μM
10 | 0.15 | 0.49 | 1.45 | Cc1c(CC(=O)N[C@H](C)c2ncc(C#N)cn2)c(=O)[nH]c2ccc(F)c(C#N)c12 (single isomer, unassigned) [compound 2015] | –
11 | 0.05 | 0.12 | 0.29 | Cc1c(CC(=O)N[C@@H](C)c2ncc(C#N)cn2)c(=O)[nH]c2ccc(F)c(C#N)c12 (single isomer, unassigned) [compound 2016] | –
12 | – | – | – | C[C@H](NC(=O)Cc1cc2c(C#N)c(F)ccc2[nH]c1=O)c1ncc(C#N)cn1 (single isomer, unassigned) [compound 2018] | Skeletal EC25 [1, 5]: 100.00‡ μM; Atrial EC25 [2, 5]: 100.00‡ μM; Ventricular EC25 [3, 5]: 100.00‡ μM
13 | 41.80 | 1.48 | 100.00 | Cc1c(CC(=O)N[C@H](C)c2ncc(C#N)cn2)c(=O)[nH]c2ccc(C#N)cc12 (single isomer, unassigned) [compound 2027] | –
14 | – | 100.00 | – | Cc1c(CC(=O)N[C@@H](C)c2ncc(C#N)cn2)c(=O)[nH]c2ccc(C#N)cc12 (single isomer, unassigned) [compound 2028] | Skeletal EC25 [1, 5]: 73.42‡ μM; Ventricular EC25 [3, 5]: 100.00‡ μM
15 | 3.21 | 1.26 | 18.01 | C[C@@H](NC(=O)Cc1cc2cc(F)ccc2[nH]c1=O)c1ncc(C#N)cn1 (single isomer, unassigned) [compound 2029] | –
16 | 24.12 | 100.00 | 100.00 | C[C@@H](NC(=O)Cc1cc2ccc(F)cc2[nH]c1=O)c1ncc(C#N)cn1 (single isomer, unassigned) [compound 2033] | –
17 | – | 100.00 | 100.00 | C[C@H](NC(=O)Cc1cc2ccc(F)cc2[nH]c1=O)c1ncc(C#N)cn1 (single isomer, unassigned) [compound 2034] | Skeletal EC25 [1, 5]: 100.00‡ μM

Row | Skeletal EC25 ([1]; Y75 value (no ‡ mark)) [µM] | Atrial EC25 ([2]; Y75 value (no ‡ mark)) [µM] | Ventricular EC25 ([3]; Y75 value (no ‡ mark)) [µM] | SMILES | further results
18 | 5.70 | 2.19 | 38.21 | C[C@@H](NC(=O)Cc1cc2cc(F)c(F)cc2[nH]c1=O)c1ncc(C#N)cn1 (single isomer, unassigned) [compound 2035] | –
19 | 100.00 | 100.00 | 100.00 | C[C@H](NC(=O)Cc1cc2cc(F)c(F)cc2[nH]c1=O)c1ncc(C#N)cn1 (single isomer, unassigned) [compound 2036] | –
20 | 0.79 | 2.88 | 5.31 | C[C@@H](NC(=O)Cc1cc2c(C#N)cccc2[nH]c1=O)c1ncc(C#N)cn1 (single isomer, unassigned) [compound 2037] | –
21 | 100.00 | 100.00 | 100.00 | C[C@H](NC(=O)Cc1cc2c(C#N)cccc2[nH]c1=O)c1ncc(C#N)cn1 (single isomer, unassigned) [compound 2038] | –
22 | 100.00 | 1.18 | 1.50 | Cc1c(CC(=O)N[C@H](C)c2ncc(C#N)cn2)c(=O)[nH]c2cccc(F)c12 (single isomer, unassigned) [compound 2041] | –
23 | 2.39 | 0.55 | 2.11 | Cc1c(CC(=O)N[C@@H](C)c2ncc(C#N)cn2)c(=O)[nH]c2cccc(F)c12 (single isomer, unassigned) [compound 2042] | –
24 | 7.03 | 1.01 | 4.16 | Cc1c(CC(=O)N[C@H](C)c2ncc(C3COC3)cn2)c(=O)[nH]c2ccc(F)c(F)c12 (single isomer, unassigned) [compound 2043] | –
25 | 29.36 | 9.19 | 5.84 | Cc1c(CC(=O)N[C@@H](C)c2ncc(C3COC3)cn2)c(=O)[nH]c2ccc(F)c(F)c12 (single isomer, unassigned) [compound 2044] | –
26 | 30.48 | 25.33 | 47.78 | C[C@@H](NC(=O)Cc1c(C#N)c2cc(F)c(F)cc2[nH]c1=O)c1ccc(C#N)cn1 (single isomer, unassigned) [compound 2047] | –
27 | 1.25 | 0.90 | 10.98 | C[C@H](NC(=O)Cc1c(C#N)c2cc(F)c(F)cc2[nH]c1=O)c1ccc(C#N)cn1 (single isomer, unassigned) [compound 2048] | –
28 | 1.00 | 0.15 | 0.23 | Cc1c(CC(=O)N[C@H](C)c2ncc(C#N)cc2F)c(=O)[nH]c2ccc(Cl)cc12 (single isomer, unassigned) [compound 2049] | –
29 | 0.04 | 0.09 | 0.18 | Cc1c(CC(=O)N[C@@H](C)c2ncc(C#N)cc2F)c(=O)[nH]c2ccc(Cl)cc12 (single isomer, unassigned) [compound 2050] | –
30 | 0.16 | 0.43 | 0.60 | Cc1c(CC(=O)N[C@H](C)c2ncc(C#N)cc2F)c(=O)[nH]c2ccc(F)c(Cl)c12 (single isomer, unassigned) [compound 2051] | –
31 | 0.08 | 0.04 | 0.09 | Cc1c(CC(=O)N[C@@H](C)c2ncc(C#N)cc2F)c(=O)[nH]c2ccc(F)c(Cl)c12 (single isomer, unassigned) [compound 2052] | –
32 | 12.45 | 100.00 | 100.00 | C[C@@H](NC(=O)Cc1c(C2CC2)c2cc(F)ccc2[nH]c1=O)c1ccc(C#N)nn1 (single isomer, unassigned) [compound 2053] | –
33 | 0.15 | 0.23 | 3.72 | C[C@H](NC(=O)Cc1c(C2CC2)c2cc(F)ccc2[nH]c1=O)c1ccc(C#N)nn1 (single isomer, unassigned) [compound 2054] | –
34 | 0.11 | 0.06 | 0.26 | Cc1c(CC(=O)N[C@H](C)c2ncc(C#N)cn2)c(=O)[nH]c2ccc(F)c(Cl)c12 (single isomer, unassigned) [compound 2055] | –
